Several values for one entry are separate records, joined by “and”; a condition that tells them apart may be missing. Identical values can stand only once. Toxic doses and inconclusive results are not listed. How the source made its calls: active means survival T/C of 150% or more; inactive means T/C below 125% in these data.
Tested on: P388 leukemia ip, CD2F1 mice, survival T/C
Assay: NCI In Vivo Anticancer Drug Screen. Data for tumor model P388 Leukemia (intraperitoneal) in CD2F1 (CDF1) mice
Details: endpoint: median survival time, higher = longer survival
Outline: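 Mice carrying the transplanted tumor received test compound or vehicle. Survival was recorded in each group, and the value is the treated-group measurement divided by that of the vehicle-treated control group.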

[1] = dose: 60.0 mg/kg/injection, schedule: Q01DX005 (ip), vehicle: Klucel (hydroxypropylcellulose) (HPC)
[2] = dose: 120.0 mg/kg/injection, schedule: Q01DX005 (ip), vehicle: Klucel (hydroxypropylcellulose) (HPC)
[3] = dose: 240.0 mg/kg/injection, schedule: Q01DX005 (ip), vehicle: Klucel (hydroxypropylcellulose) (HPC)
[4] = dose: 50.0 mg/kg/injection, schedule: Q04DX003 (ip), vehicle: saline with Tween-80
[5] = dose: 100.0 mg/kg/injection, schedule: Q04DX003 (ip), vehicle: saline with Tween-80
[6] = dose: 100.0 mg/kg/injection, schedule: Q04DX003 (ip), vehicle: saline
[7] = dose: 25.0 mg/kg/injection, schedule: Q01DX009 (ip), vehicle: saline
[8] = dose: 50.0 mg/kg/injection, schedule: Q01DX009 (ip), vehicle: saline
[9] = dose: 100.0 mg/kg/injection, schedule: Q01DX009 (ip), vehicle: saline
[10] = dose: 25.0 mg/kg/injection, schedule: Q01DX009 (ip), vehicle: saline with Tween-80
[11] = dose: 50.0 mg/kg/injection, schedule: Q01DX009 (ip), vehicle: saline with Tween-80
[12] = dose: 100.0 mg/kg/injection, schedule: Q01DX009 (ip), vehicle: saline with Tween-80

Measured: T/C

COC1(OC)C2(Cl)CC3C4(C)OC(Cl)(C31Cl)C42Cl (stereo not given)
inactive: [1] 105 % of control | [2] 101 % of control | [3] 100 % of control

CC(C)OC(=O)NN(C(=O)OC(C)C)N(C)C
inactive: [1] 100 % of control | [2] 100 % of control | [3] 103 % of control

CC(=O)OC1OC(CF)C(OC(C)=O)C1OC(C)=O (stereo not given)
inactive: [4] 112 % of control | [5] 100 % of control | dose: 200.0 mg/kg/injection, schedule: Q04DX003 (ip), vehicle: saline with Tween-80 93 % of control

CCCCNC(C)[C@]1(O)Cc2c(O)c3c(c(O)c2[C@@H](OC2CC(N)C(O)C(C)O2)C1)C(=O)c1c(OC)cccc1C3=O (stereo not given in full)
inactive: dose: 10.0 mg/kg/injection, schedule: Q01DX009 (ip), vehicle: water 99 % of control
active: dose: 1.25 mg/kg/injection, schedule: Q01DX009 (ip), vehicle: water 154 % of control | dose: 2.5 mg/kg/injection, schedule: Q01DX009 (ip), vehicle: water 152 % of control and 170 % of control | dose: 5.0 mg/kg/injection, schedule: Q01DX009 (ip), vehicle: water 176 % of control and 190 % of control

CCn1c2nc(=O)[nH]c(=O)c-2[n+]([O-])c2ccccc21
inactive: dose: 12.5 mg/kg/injection, schedule: Q01DX001 (ip), vehicle: saline with Tween-80 96 % of control | dose: 25.0 mg/kg/injection, schedule: Q01DX001 (ip), vehicle: saline with Tween-80 96 % of control | dose: 50.0 mg/kg/injection, schedule: Q01DX001 (ip), vehicle: saline with Tween-80 96 % of control

Cc1ccc2nc(/N=C/c3ccc(N(C)C)cc3)sc2c1
inactive: [6] 109 % of control | dose: 200.0 mg/kg/injection, schedule: Q04DX003 (ip), vehicle: saline 107 % of control | dose: 400.0 mg/kg/injection, schedule: Q04DX003 (ip), vehicle: saline 101 % of control

NC(N)=N/N=C/C(Cl)Cl
inactive: [7] 109 % of control | dose: 25.0 mg/kg/injection, schedule: Q04DX003 (ip), vehicle: saline 100 % of control | [8] 100 % of control | dose: 50.0 mg/kg/injection, schedule: Q04DX003 (ip), vehicle: saline 100 % of control | [9] 118 % of control | [6] 100 % of control and 95 % of control

CC(C)(OCc1ccccc1)c1ccccc1P(c1ccccc1)c1ccccc1
inactive: dose: 50.0 mg/kg/injection, schedule: Q01DX009 (ip), vehicle: Klucel (hydroxypropylcellulose) (HPC) 101 % of control | dose: 100.0 mg/kg/injection, schedule: Q01DX009 (ip), vehicle: Klucel (hydroxypropylcellulose) (HPC) 101 % of control | dose: 200.0 mg/kg/injection, schedule: Q01DX009 (ip), vehicle: Klucel (hydroxypropylcellulose) (HPC) 110 % of control

O=c1cc(Br)[nH]c(=O)o1
inactive: [10] 91 % of control | [11] 97 % of control | [12] 92 % of control

CCCCCCCOc1cccc(OCCCC[N+]2(CC)CCCCC2)c1
inactive: dose: 1.56 mg/kg/injection, schedule: Q01DX009 (ip), vehicle: saline 97 % of control | dose: 3.12 mg/kg/injection, schedule: Q01DX009 (ip), vehicle: saline 100 % of control | dose: 6.25 mg/kg/injection, schedule: Q01DX009 (ip), vehicle: saline 100 % of control

COC(=O)Nc1cccc(-c2nc3ccc(NC(=O)OC)cc3c(=O)n2-c2ccccc2)c1
inactive: dose: 6.25 mg/kg/injection, schedule: Q01DX009 (ip), vehicle: Klucel (hydroxypropylcellulose) (HPC) 111 % of control | dose: 8.0 mg/kg/injection, schedule: Q01DX005 (oral), vehicle: Klucel (hydroxypropylcellulose) (HPC) 109 % of control and 92 % of control | dose: 12.5 mg/kg/injection, schedule: Q01DX009 (ip), vehicle: Klucel (hydroxypropylcellulose) (HPC) 112 % of control | dose: 16.0 mg/kg/injection, schedule: Q01DX005 (oral), vehicle: Klucel (hydroxypropylcellulose) (HPC) 110 % of control and 111 % of control | dose: 16.0 mg/kg/injection, schedule: Q01DX005 (oral), vehicle: saline 108 % of control | [7] 110 % of control | dose: 25.0 mg/kg/injection, schedule: Q01DX009 (oral), vehicle: Klucel (hydroxypropylcellulose) (HPC) 114 % of control | dose: 32.0 mg/kg/injection, schedule: Q01DX005 (oral), vehicle: Klucel (hydroxypropylcellulose) (HPC) 112 % of control | dose: 32.0 mg/kg/injection, schedule: Q01DX005 (oral), vehicle: saline 121 % of control | dose: 50.0 mg/kg/injection, schedule: Q01DX009 (oral), vehicle: Klucel (hydroxypropylcellulose) (HPC) 118 % of control | dose: 64.0 mg/kg/injection, schedule: Q01DX005 (oral), vehicle: Klucel (hydroxypropylcellulose) (HPC) 102 % of control | dose: 128.0 mg/kg/injection, schedule: Q01DX005 (oral), vehicle: Klucel (hydroxypropylcellulose) (HPC) 102 % of control
active: dose: 25.0 mg/kg/injection, schedule: Q01DX009 (ip), vehicle: Klucel (hydroxypropylcellulose) (HPC) 153 % of control | [8] 236 % of control | [9] 202 % of control and 236 % of control | dose: 128.0 mg/kg/injection, schedule: Q01DX005 (oral), vehicle: saline 171 % of control | dose: 150.0 mg/kg/injection, schedule: Q01DX009 (ip), vehicle: saline 236 % of control | dose: 200.0 mg/kg/injection, schedule: Q01DX009 (oral), vehicle: Klucel (hydroxypropylcellulose) (HPC) 181 % of control | dose: 400.0 mg/kg/injection, schedule: Q01DX009 (oral), vehicle: Klucel (hydroxypropylcellulose) (HPC) 183 % of control | dose: 800.0 mg/kg/injection, schedule: Q01DX009 (oral), vehicle: Klucel (hydroxypropylcellulose) (HPC) 205 % of control

C(=Nc1cnc2ccccc2c1)c1ccnc2ccccc12
inactive: dose: 12.5 mg/kg/injection, schedule: Q01DX009 (ip), vehicle: saline with Tween-80 98 % of control | dose: 12.5 mg/kg/injection, schedule: Q04DX003 (ip), vehicle: saline with Tween-80 107 % of control | [10] 98 % of control | dose: 25.0 mg/kg/injection, schedule: Q04DX003 (ip), vehicle: saline with Tween-80 96 % of control | [11] 101 % of control | [4] 114 % of control | [12] 96 % of control | [5] 99 % of control

CC(C)CC(=O)CC(=O)C(C)(C)C.CC(C)CC(=O)CC(=O)C(C)(C)C.[Cu]
inactive: dose: 25.0 mg/kg/injection, schedule: Q04DX003 (ip), vehicle: Klucel (hydroxypropylcellulose) (HPC) 100 % of control | dose: 50.0 mg/kg/injection, schedule: Q04DX003 (ip), vehicle: Klucel (hydroxypropylcellulose) (HPC) 101 % of control | dose: 100.0 mg/kg/injection, schedule: Q04DX003 (ip), vehicle: Klucel (hydroxypropylcellulose) (HPC) 98 % of control and 106 % of control

O=C(Nc1nnc(-c2cc(=O)c3cc(Cl)ccc3o2)s1)c1ccccc1
inactive: dose: 50.0 mg/kg/injection, schedule: Q01DX005 (ip), vehicle: saline with Tween-80 92 % of control | dose: 100.0 mg/kg/injection, schedule: Q01DX005 (ip), vehicle: saline with Tween-80 87 % of control and 88 % of control | dose: 200.0 mg/kg/injection, schedule: Q01DX005 (ip), vehicle: saline with Tween-80 99 % of control and 89 % of control

O=C1CCC(c2n[nH]c(=S)n2-c2ccccc2)N1 (stereo not given)
inactive: dose: 60.0 mg/kg/injection, schedule: Q01DX005 (ip), vehicle: saline with Tween-80 100 % of control | dose: 120.0 mg/kg/injection, schedule: Q01DX005 (ip), vehicle: saline with Tween-80 97 % of control | dose: 240.0 mg/kg/injection, schedule: Q01DX005 (ip), vehicle: saline with Tween-80 94 % of control

CC(C)=CC(=O)OC(=O)C=C(C)C
inactive: dose: 100.0 mg/kg/injection, schedule: Q04DX003 (ip), vehicle: other 100 % of control | dose: 200.0 mg/kg/injection, schedule: Q04DX003 (ip), vehicle: other 100 % of control | dose: 400.0 mg/kg/injection, schedule: Q04DX003 (ip), vehicle: other 100 % of control

COc1cc(C(=O)C2OC2c2ccc(Cl)cc2)c([N+](=O)[O-])cc1OC (stereo not given)
inactive: dose: 50.0 mg/kg/injection, schedule: Q01DX005 (ip), vehicle: Klucel (hydroxypropylcellulose) (HPC) 93 % of control | dose: 100.0 mg/kg/injection, schedule: Q01DX005 (ip), vehicle: Klucel (hydroxypropylcellulose) (HPC) 98 % of control | dose: 200.0 mg/kg/injection, schedule: Q01DX005 (ip), vehicle: Klucel (hydroxypropylcellulose) (HPC) 96 % of control

COC(=O)n1oc2c(Br)cc(Br)cc2c1=O
inactive: dose: 100.0 mg/kg/injection, schedule: Q04DX002 (ip), vehicle: Klucel (hydroxypropylcellulose) (HPC) 93 % of control | dose: 200.0 mg/kg/injection, schedule: Q04DX002 (ip), vehicle: Klucel (hydroxypropylcellulose) (HPC) 101 % of control | dose: 400.0 mg/kg/injection, schedule: Q04DX002 (ip), vehicle: Klucel (hydroxypropylcellulose) (HPC) 101 % of control

— PubChem BioAssay AID330 (DTP/NCI, 2004)
